# Reference: US20240083933A1, “DISACCHARIDES FOR TREATING BONE DISEASES” (UNIVERSITE DE PICARDIE JULES VERNE, priority 2020, published 2024)
# How the values were obtained:
# [1] = test system: MC3T3-E1 cells; test: Calcium assay (pro-calcifying activity) on mouse pre-osteoblastic cells; type: cell-based; conditions: for production of calcium by the MC3T3-E1 cells (calcium dosage in culture medium): 9 days, 4 mM Pi, 30 μM compound, vs control+Pi (FIG. 1); for increase in calcification relative to the mineralizing medium: MC3T3-E1, 25 days
# Description: FIG. 1 represents the calcium dosage in the MC3T3-E1 culture medium (in […] of protein per well) after 9 days of exposure of these cells to 4 mM of Pi ([…]) (control+Pi) and 4 mM of Pi in the presence of 30 μM of each of the compounds referenced DP2SNA, DP2NA, DP2K and DP2S;
# (§1) For all experiments, a mouse pre-osteoblastic cell line (MC3T3-E1, ATCC) and human primary osteoblastic cells (HOb, Promocell) were used. The mouse pre-osteoblastic cells were cultured in 75 cm^2 flasks, containing 15 mL of α-MEM medium (M4526, SIGMA) and 10% fetal calf serum (FCS), containing 1% Penicillin/Streptomycin antibiotics and 1% glutamine. Similarly, human HOb cells were cultured in 75 cm 2 flasks containing 15 mL of proliferation medium (Human Osteoblast Proliferation Medium, PromoCell). The cells are maintained in the oven at 37° C., with 5% CO2 and 90% humidity. The medium was changed every three days.
# (§2) MC3T3-E1 cells were seeded in 6-well plates at 63,700 cells/well to be treated in order to extract RNA or for alkaline phosphatase enzymatic activity assay and in 48-well plates for the calcium assay at 5250 cells/well. The HOb cells were seeded at 182,000 cells/well in 6-well plates for the extraction of RNA or for the alkaline phosphatase enzymatic activity assay; at 15,000 cells/well in 48-well plates for the calcium assay; at 10,000 cells/well in 48-well plates for the MTT test or the WST-1 test and at 100,000 cells/well in 6-well plates for the protein extraction or for the fluorescence.
# (§3) In order to induce the mineralization, the MC3T3-E1 cells were treated with α-MEM medium containing 5% FCS to which 10 mM of β-glycerophosphate and 50 μg/mL of ascorbic acid are added. The HOb cells were treated with the “Osteoblast mineralization medium” (Promocell). […] After filtration, the cells were treated with the respective media (500 μL per well of the 48-well plate and 2 mL per well of the 6-well plate).
# The release of calcium in the culture medium of mouse pre-osteoblastic cells (MC3T3-E1) has been studied.
# An increase in calcification was observed, relative to the mineralizing medium (FIG. 2), in the presence of DP2R0 at 15 μM (40±2%), at 30 μM (28±18%) and at 50 μM (40±28%), and DP2NA at 15 μM (15±14%), at 30 μM (33±12%) and at 50 μM (10±19%).
# [2] = Acetate migration DP2/DP2′ in solution (stability); type: physicochemical; conditions: water, after 44 days
# Description: The compound DP2′ was extracted from the DP2-DP2′ mixture which is formed when the compound DP2 is dissolved in water. The compound DP2′ has been separated by preparative HPLC chromatography with water as elution solvent.
# The inventors have observed that when the compound DP2′ was in water, the delocalization of the acetate group was also present, but with very slow kinetics compared to the DP2→DP2′ reaction. Thus, a solution of DP2′ in water which is left to rest contains, after 44 days, 10 to 15% of DP2. The DP2′ therefore remains alone in the water for a given duration which is quite long. It is therefore possible to test the biological effect of DP2′ in solution in water.
# Similarly, the inventors have observed that the kinetics of the DP2→DP2′ reaction is such that it is also possible to test the biological activity of the compound DP2 alone after extraction of the formed compound DP2′. Thus, the two compounds DP2 and DP2′ can coexist or not in water for a given duration.
# In methanol, for example, the compound DP2 is therefore alone.
# There is about ⅔ of DP2R2 for ⅓ of DP2′. The compound DP2′ comes from a migration of the acetate group (R2) on the 30H position. The compound DP2′ could be isolated and synthesized as previously indicated. […]
# [3] = test system: HOb cells; test: Calcium assay (pro-calcifying activity, mineralization) on human primary osteoblastic cells; type: cell-based; conditions: for increase in calcification relative to the mineralizing condition: HOb
# Description: as §1, §2, §3
# The calcification has also been studied on human osteoblastic cells (Hob, PromoCell, Heidelberg, Germany). They are isolated from femoral trabecular bone tissues.
structure (smiles),measurement,setting,value
"CCCO[C@H]1O[C@H](COS(=O)(=O)[O-])[C@@H](O[C@@H]2O[C@H](CO)[C@@H](O)[C@H](O)[C@H]2NC(C)=O)[C@H](O)[C@H]1OC(C)=O.[Na+] [DP2S, n-propyl, 2-0-acetyl-6-O-sulfo-α-D-Glucopyranoside, 4-O-(2-acetamido-2-desoxy-β-D-glucopyranosyl), monosodium salt]",production of calcium by the MC3T3-E1 cells (calcium dosage in culture medium),[1],significantly inhibits the expression of calcium
"CCCOC1OC(CO)C(OC2OC(CO)C(O)C(O)C2NC(C)=O)C(OC(C)=O)C1O [DP2′, n-propyl, 3-0-acetyl-α-D-Glucopyranoside, 4-O-(2-acetamido-2-deoxy-β-D-glucopyranosyl)]",DP2 content of a solution of DP2′ in water left to rest,[2],10 to 15%
same,percentage of mineralization of the HOb cells,"[3]; 14 days, mineralizing conditions, 30 μM",143.806±36.657%
"CCCO[C@H]1OC(CO)[C@@H](O[C@@H]2OC(CO)[C@@H](O)C(O)C2NC(C)=O)C(O)C1O (stereo partly drawn) [DP2NA, n-propyl, α-D-Glucopyranoside, 4-O-(2-acetamido-2-deoxy-β-D-glucopyranosyl)]",production of calcium by the MC3T3-E1 cells (calcium dosage in culture medium),[1],increase the production of calcium
same,increase in calcification relative to the mineralizing medium,[1]; 15 μM,15±14%
same,increase in calcification relative to the mineralizing medium,[1]; 30 μM,33±12%
same,increase in calcification relative to the mineralizing medium,[1]; 50 μM,10±19%
same,increase in calcification relative to the mineralizing condition,"[3]; 14 days, 15 μM",45±42%
same,increase in calcification relative to the mineralizing condition,"[3]; 14 days, 30 μM",44±7%
same,increase in calcification relative to the mineralizing condition,"[3]; 14 days, 50 μM",35±8%
same,mineralization of the HOb cells relative to the mineralizing medium alone,"[3]; lower concentrations 5, 7.5 and 10 μM (FIG. 4)",decrease in mineralization
"CCCO[C@H]1OC(COS(=O)(=O)[O-])[C@@H](O[C@@H]2OC(CO)[C@@H](O)C(O)C2NC(C)=O)C(O)C1O.[Na+] (stereo partly drawn) [DP2SNA, n-propyl, 6-O-sulfo-α-D-Glucopyranoside, 4-O-(2-acetamido-2-desoxy-β-D-glucopyranosyl), monosodium salt]",production of calcium by the MC3T3-E1 cells (calcium dosage in culture medium),[1],increase the production of calcium
